Measured values from ChEMBL document CHEMBL3992552, “Mechanisms of action and structure-activity relationships of cytotoxic flavokawain derivatives” (Bioorg Med Chem, 2017).
The source made the active and inactive calls. No cut-off for these calls is given here.

Tests used:
Huh-7 [1] = test: Cell cycle arrest in human HuH7 cells assessed as accumulation at S phase at 10 uM measured after 48 hrs by Hoechst/BrdU staining based fluorescence assay (reference value: 44%); assay type: functional
[2] = Selectivity index, ratio of IC50 for human fibroblasts to IC50 for human MCF7 cells
NCI-H727 [3] = test: Cytotoxicity against human NCI-H727 cells assessed as cell viability after 48 hrs by Hoechst 33342 staining based assay; assay type: functional; settings: NCI-H727, 48 h
Huh-7 [4] = test: Cell cycle arrest in human HuH7 cells assessed as accumulation at S phase at 25 uM measured after 48 hrs by Hoechst/BrdU staining based fluorescence assay (reference value: 44%); assay type: functional
MDA-MB-231 [5] = test: Induction of apoptosis in human MDA-MB-231 cells harboring p53 mutant assessed as increase in cleaved caspase3 at 2 times IC50 after 24 hrs by Hoechst staining based assay; assay type: functional, cell-based
MCF7 [6] = test: Induction of apoptosis in human MCF7 cells harboring wild-type p53 assessed as upregulation of cyclinB1 measured after 18 hrs by Hoechst staining based assay; assay type: functional, cell-based
NCI-H727 [7] = test: Cell cycle arrest in human NCI-H727 cells harboring p53 mutant assessed as accumulation at S phase at 10 uM measured after 48 hrs by Hoechst/BrdU staining based fluorescence assay (reference value: 40.3%); assay type: functional
[8] = Selectivity index, ratio of IC50 for human fibroblasts to IC50 for human HuH7 cells
MDA-MB-231 [9] = test: Cytotoxicity against human MDA-MB-231 cells assessed as cell viability after 48 hrs by Hoechst 33342 staining based assay; assay type: functional; settings: MDA-MB-231, 48 h
NCI-H727 [10] = test: Cell cycle arrest in human NCI-H727 cells harboring p53 mutant assessed as mitotic index at 10 uM measured after 48 hrs by Hoechst staining based fluorescence assay (reference value: 1.1); assay type: functional
HaCaT [11] = test: Cytotoxicity against human HaCaT cells assessed as cell viability after 48 hrs by Hoechst 33342 staining based assay; assay type: functional
MDA-MB-231 [12] = test: Cytotoxicity against human MDA-MB-231 cells assessed as cell survival at 50 uM after 48 hrs by Hoechst 33342 staining based assay relative to control; assay type: functional; settings: MDA-MB-231, 48 h, read-out: Survival
[13] = Selectivity index, ratio of IC50 for human fibroblasts to IC50 for human NCI-H727 cells
Huh-7 [14] = test: Cell cycle arrest in human HuH7 cells assessed as mitotic index at 10 uM measured after 48 hrs by Hoechst staining based fluorescence assay (reference value: 2.2); assay type: functional
Caco-2 [15] = test: Cytotoxicity against human Caco2 cells assessed as cell survival at 50 uM after 48 hrs by Hoechst 33342 staining based assay relative to control; assay type: functional; settings: Caco-2, 48 h, read-out: Survival
PC-3 [16] = test: Induction of apoptosis in human PC3 cells harboring p53 mutant assessed as upregulation of cyclinB1 after 48 hrs by Hoechst staining based assay; assay type: functional, cell-based
Caco-2 [17] = test: Cytotoxicity against human Caco2 cells assessed as cell viability after 48 hrs by Hoechst 33342 staining based assay; assay type: functional; settings: Caco-2, 48 h
MCF7 [18] = test: Induction of apoptosis in human MCF7 cells harboring wild-type p53 assessed as increase in late apoptosis at 2 times IC50 after 24 hrs by YoPro/propidium iodide/Hoechst staining based assay; assay type: functional, cell-based
HCT-116 [19] = test: Induction of apoptosis in human HCT116 cells harboring wild-type p53 assessed as increase in early apoptosis at 2 times IC50 after 48 hrs by YoPro/propidium iodide/Hoechst staining based assay; assay type: functional, cell-based
PC-3 [20] = test: Induction of apoptosis in human PC3 cells harboring p53 mutant assessed as increase in early apoptosis at 2 times IC50 after 48 hrs by YoPro/propidium iodide/Hoechst staining based assay; assay type: functional, cell-based
Caco-2 [21] = test: Cell cycle arrest in human Caco2 cells assessed as mitotic index at 10 uM measured after 48 hrs by Hoechst staining based fluorescence assay (reference value: 3.6); assay type: functional
Caco-2 [22] = test: Cell cycle arrest in human Caco2 cells assessed as accumulation at S phase at 25 uM measured after 48 hrs by Hoechst/BrdU staining based fluorescence assay (reference value: […]); assay type: functional
PC-3 [23] = test: Cytotoxicity against human PC3 cells assessed as cell viability after 48 hrs by Hoechst 33342 staining based assay; assay type: functional; settings: PC-3, 48 h
MDA-MB-231 [24] = test: Cell cycle arrest in human MDA-MB-231 cells assessed as accumulation at M phase by Hoechst staining based fluorescence assay; assay type: functional
[25] = Selectivity index, ratio of IC50 for human fibroblasts to IC50 for human Caco2 cells
HCT-116 [26] = test: Cell cycle arrest in human HCT116 cells harboring wild-type p53 assessed as mitotic index at 10 uM measured after 48 hrs by Hoechst staining based fluorescence assay (reference value: 2.3); assay type: functional
Huh-7 [27] = test: Cytotoxicity against human HuH7 cells assessed as cell viability after 48 hrs by Hoechst 33342 staining based assay; assay type: functional; settings: Huh-7, 48 h
NCI-H727 [28] = test: Cytotoxicity against human NCI-H727 cells assessed as cell survival at 50 uM after 48 hrs by Hoechst 33342 staining based assay relative to control; assay type: functional; settings: NCI-H727, 48 h, read-out: Survival
PC-3 [29] = test: Cell cycle arrest in human PC3 cells harboring p53 mutant assessed as accumulation at S phase at 10 uM measured after 48 hrs by Hoechst/BrdU staining based fluorescence assay (reference value: 40.8%); assay type: functional
HaCaT [30] = test: Cell cycle arrest in human HaCaT cells harboring […] p53 assessed as accumulation at S phase at 10 uM measured after 48 hrs by Hoechst/BrdU staining based fluorescence assay (reference value: 52.3%); assay type: functional
PC-3 [31] = test: Induction of apoptosis in human PC3 cells harboring p53 mutant assessed as increase in cleaved caspase3 at 2 times IC50 after 48 hrs by Hoechst staining based assay; assay type: functional, cell-based
HCT-116 [32] = test: Cytotoxicity against human HCT116 cells assessed as cell viability after 48 hrs by Hoechst 33342 staining based assay; assay type: functional; settings: HCT-116, 48 h
HaCaT [33] = test: Cell cycle arrest in human HaCaT cells assessed as accumulation at M phase by Hoechst staining based fluorescence assay; assay type: functional
Huh-7 [34] = test: Cytotoxicity against human HuH7 cells assessed as cell survival at 50 uM after 48 hrs by Hoechst 33342 staining based assay relative to control; assay type: functional; settings: Huh-7, 48 h, read-out: Survival
HCT-116 [35] = test: Cell cycle arrest in human HCT116 cells harboring wild-type p53 assessed as accumulation at S phase at 10 uM measured after 48 hrs by Hoechst/BrdU staining based fluorescence assay (reference value: 68.4%); assay type: functional
NCI-H727 [36] = test: Cell cycle arrest in human NCI-H727 cells harboring p53 mutant assessed as accumulation at S phase at 25 uM measured after 48 hrs by Hoechst/BrdU staining based fluorescence assay (reference value: 40.3%); assay type: functional
MDA-MB-231 [37] = test: Induction of apoptosis in human MDA-MB-231 cells harboring p53 mutant assessed as increase in late apoptosis at 2 times IC50 after 24 hrs by YoPro/propidium iodide/Hoechst staining based assay; assay type: functional, cell-based
NCI-H727 [38] = test: Cell cycle arrest in human NCI-H727 cells harboring p53 mutant assessed as mitotic index at 25 uM measured after 48 hrs by Hoechst staining based fluorescence assay (reference value: 1.1); assay type: functional

SMILES	Activity (Huh-7 [1]) [%]	Ratio IC50 [2]	IC50 (NCI-H727 [3]) [µM]	Activity (Huh-7 [4]) [%]	Activity (MDA-MB-231 [5])	Activity (MCF7 [6])	Activity (NCI-H727 [7]) [%]	Ratio IC50 [8]	IC50 (MDA-MB-231 [9]) [µM]	Activity_index (NCI-H727 [10])	IC50 (HaCaT [11]) [µM]	viability at 50 µM (MDA-MB-231 [12]) [%]	Ratio IC50 [13]	Activity_index (Huh-7 [14])	viability at 50 µM (Caco-2 [15]) [%]	Activity (PC-3 [16])	IC50 (Caco-2 [17]) [µM]	Activity (MCF7 [18])	Activity (HCT-116 [19])	Activity (PC-3 [20])	further results
COc1cc(OC)c(C(=O)/C=C/c2ccc(Br)cc2)c(OC)c1	46	>5.3	11.3	0.2	Active	Active	39	>3.6	11.1	1	9	6	>4.4	10.4	0	Active	6.8	Active	Active	Active	Activity_index (Caco-2 [21]): 30.7; Activity (Caco-2 [22]): 1.9%; IC50 (PC-3 [23]): 7.1 µM; Activity (MDA-MB-231 [24]): Active; Ratio IC50 [25]: >7.4; Activity_index (HCT-116 [26]): 2.8; IC50 (Huh-7 [27]): 13.9 µM; viability at 50 µM (NCI-H727 [28]): 2%; Activity (PC-3 [29]): 35%; Activity (HaCaT [30]): 24%; Activity (PC-3 [31]): Active; IC50 (HCT-116 [32]): 6.2 µM; Activity (HaCaT [33]): Active; viability at 50 µM (Huh-7 [34]): 3%; Activity (HCT-116 [35]): 68%; Activity (NCI-H727 [36]): 6%; Activity (MDA-MB-231 [37]): Active; Activity_index (NCI-H727 [38]): 0.7
COc1cc(OC)c(C(=O)/C=C/c2ccc(F)cc2)c(OC)c1	44	>6.5	5.5	1.1	Active	Active	31	>3.4	10.7	1.1	7.6	12	>9.1	4.7	3	Active	5.5	Active	Active	Active	Activity_index (Caco-2 [21]): 32; Activity (Caco-2 [22]): 13%; IC50 (PC-3 [23]): 5.5 µM; Activity (MDA-MB-231 [24]): Active; Ratio IC50 [25]: >9.1; Activity_index (HCT-116 [26]): 1.3; IC50 (Huh-7 [27]): 14.6 µM; viability at 50 µM (NCI-H727 [28]): 4%; Activity (PC-3 [29]): 27%; Activity (HaCaT [30]): 20%; Activity (PC-3 [31]): Active; IC50 (HCT-116 [32]): 6.2 µM; Activity (HaCaT [33]): Active; viability at 50 µM (Huh-7 [34]): 8%; Activity (HCT-116 [35]): 23%; Activity (NCI-H727 [36]): 4.5%; Activity (MDA-MB-231 [37]): Active; Activity_index (NCI-H727 [38]): 0.4
COc1cc(OC)c(C(=O)/C=C/c2ccccc2SC)c(OC)c1	37	3.4	8.7	0.3	Active	Active	35	2.3	9.9	1	7.7	36	3.7	6.5	17	Active	8.8	Active	Active	Active	Activity_index (Caco-2 [21]): 29.3; Activity (Caco-2 [22]): 2.2%; IC50 (PC-3 [23]): 7.6 µM; Activity (MDA-MB-231 [24]): Active; Ratio IC50 [25]: 3.6; Activity_index (HCT-116 [26]): 0.6; IC50 (Huh-7 [27]): 14.1 µM; viability at 50 µM (NCI-H727 [28]): 1%; Activity (PC-3 [29]): 30%; Activity (HaCaT [30]): 24%; Activity (PC-3 [31]): Active; IC50 (HCT-116 [32]): 6.8 µM; Activity (HaCaT [33]): Active; viability at 50 µM (Huh-7 [34]): 4%; Activity (HCT-116 [35]): 25%; Activity (NCI-H727 [36]): 3%; Activity (MDA-MB-231 [37]): Active; Activity_index (NCI-H727 [38]): 0
COc1cc(OC)c(C(=O)/C=C/c2ccccc2)c(OC)c1	45	>5.3	11.4	0.7	Active	Active	34	>3.2	12.9	1.3	7.2	13	>4.4	8.5	5	Active	5.8	Active	Active	Active	Activity_index (Caco-2 [21]): 38.7; Activity (Caco-2 [22]): 24%; IC50 (PC-3 [23]): 5.1 µM; Activity (MDA-MB-231 [24]): Active; Ratio IC50 [25]: >8.6; Activity_index (HCT-116 [26]): 2; IC50 (Huh-7 [27]): 15.5 µM; viability at 50 µM (NCI-H727 [28]): 1%; Activity (PC-3 [29]): 24%; Activity (HaCaT [30]): 18%; Activity (PC-3 [31]): Active; IC50 (HCT-116 [32]): 6.9 µM; Activity (HaCaT [33]): Active; viability at 50 µM (Huh-7 [34]): 6%; Activity (HCT-116 [35]): 19%; Activity (NCI-H727 [36]): 4.5%; Activity (MDA-MB-231 [37]): Active; Activity_index (NCI-H727 [38]): 0.2
COc1cccc(/C=C/C(=O)c2c(OC)cc(OC)cc2OC)c1	40	>5.3	8.2	0.3	Active	Active	37	>5.6	8.7	1.7	5.3	4	>6.1	12.3	2	Active	3.9	Active	Active	Active	Activity_index (Caco-2 [21]): 36.8; Activity (Caco-2 [22]): 6%; IC50 (PC-3 [23]): 3.1 µM; Activity (MDA-MB-231 [24]): Active; Ratio IC50 [25]: >12.8; Activity_index (HCT-116 [26]): 4.5; IC50 (Huh-7 [27]): 8.9 µM; viability at 50 µM (NCI-H727 [28]): 1%; Activity (PC-3 [29]): 23%; Activity (HaCaT [30]): 19%; Activity (PC-3 [31]): Active; IC50 (HCT-116 [32]): 4.3 µM; Activity (HaCaT [33]): Active; viability at 50 µM (Huh-7 [34]): 3%; Activity (HCT-116 [35]): 20%; Activity (NCI-H727 [36]): 5.1%; Activity (MDA-MB-231 [37]): Active; Activity_index (NCI-H727 [38]): 0.1
